Test [1] deals with GS-9L cells (rat gliosarcoma). Put plainly: Cell attachment, spreading and growth on coated low-attachment polystyrene wells. The format is cell-based. As to conditions: 10^4 cells/well, serum-containing medium. The text has this: (§1) Several cell types were used, including GS-9L cells (rat gliosarcoma), C3H10T1/2 (murine fibroblasts), Jurkat (human T cell), bovine aorta endothelial (BAE) cells and rat lymphocytes. GS-9L and C3H10T1/2 cells were maintained in log phase growth and detached from cultureware using Versene and collected by centrifugation. Jurkat cells grew as single cell suspensions and were collected by centrifugation. Rat lymphocytes were collected from heparinized blood by density gradient isolation over Ficoll-Hypaque® media. The collected cells were rinsed once by low speed centrifugation and suspended in either serum-free Dulbecco's Modified Eagles Medium (DMEM) containing pyruvate or RPMI 1640 containing 10% fetal bovine serum (FBS) supplemented with pyruvate. Aliquots of 10^4 cells in 100 μL were used in subsequent adhesion studies.
(§2) The cells were examined after plating using an inverted, phase-contrast microscope. At selected time points up to 4 days after initial seeding, the cells were rinsed three times in saline and fixed in buffered 10% formalin or 35% ethanol. In some cases, the cells were stained in situ with a 0.01 % aqueous solution of crystal violet. The amount of attachment was scored visually or quantitated. To establish the relative number of cells bound, crystal violet stained cells were dissolved in a solution of 70% ethanol containing 0.1% sodium dodecyl sulfate and 0.38 M Tris and the absorbance monitored at 610 nm, using the methods of Scragg and Ferreira (Anal Biochem 198:80-5, 1991) and Grando et al. (Skin Pharmacol 6:135-47, 1993).
(§3) The cells of Example 7 were added to untreated polystyrene wells, wells coated with silyl-heparin as in Example 4, with silyl-heparin-fibronectin as in Example 5, and with only fibronectin by incubation as described in Example 5. […] Cells were seeded at a concentration of 10^4 cells/well in serum-containing medium.
The cells grew to confluency by 4 days. […] No effort was made to grow the cells in a defined- or serum-low medium known to support growth.

The test system of test [2] is C3H10T1/2 (murine fibroblasts). The test is described as above. The format is cell-based.
Excerpt: as §1, §2, §3
The cells grew to confluency by 4 days. […] No effort was made to grow the cells in a defined- or serum-low medium known to support growth. […]

Test [3] relates to C3H10T1/2 cells. Put plainly: C3H10T1/2 cell attachment to a variety of coated substrates. In kind it is cell-based, murine. The procedure: as §2
The general applicability of silyl-heparin-fibronectin complex was evaluated by applying this coating using the methods of Examples 4 and 5 to a variety of surfaces, including polystyrene, polylactide:polyglycolide, polycaprolactone, polyurethane and stainless steel. […] They did, however, bind moderately well to polylactide:polyglycolide and to polycaprolactone, and very well to stainless steel.

For test [4], the system named is C3H10T1/2 cells. Put plainly: Cross-titration of fibronectin and silyl-heparin needed to support cell attachment. In kind it is cell-based, murine. As to conditions: fibronectin titrated from 4 μg/well on silyl-heparin applied at 30 μg/well; 24 hours; crystal violet, 610 nm. The method, then:
The optimal amount of fibronectin and silyl-heparin to support attachment of C3H10T1/2 cells was determined by cross-titration, as shown on FIG. 1. […] The fall-off for the silyl-heparin was more gradual. The curve of the relative amount of silyl-heparin on the substrate following serial dilution generally followed the cell attachment curve.
In FIG. 1, fibronectin (Δ—Δ) or silyl-heparin (•—•) were titrated to determine the quantity needed to support attachment of C3H10T1/2 cells. All dilutions were performed in quadruplicate in wells of 96-well plates of low-attachment polystyrene. For titration of fibronectin, silyl-heparin was applied at 30 μg/well in 70% ethanol as in Example 4. After rinsing, fibronectin was applied in doubling dilutions of phosphate buffered saline starting from 4 μg/well. For titration of silyl-heparin, silyl-heparin was applied in doubling dilutions in 70% ethanol starting from silyl-heparin concentrations of 30 μg/well. Fibronectin was then applied in saline at 4 μg/well. Cells were at a concentration of 10^4 cells/well in growth medium. For both experiments, the cells were allowed 24 hours to attach and then were rinsed and fixed in buffered formalin. The cells were stained for 5 minutes with 0.01% aqueous crystal violet and the absorbance at 610 nm determined.

For test [5], the system named is C3H10T1/2 cells. Put plainly: Attachment of C3H10T1/2 cells to silyl-heparin coated wells complexed with adhesive molecules, crystal violet. Also noted: unit not given here. Particulars: after two hours; hydrogel-polystyrene 96-well plates coated with silyl-heparin complexes and the listed adhesive molecule; proteins 100 μg/ml, serum undiluted. In kind it is cell-based, murine. The method, then:
Attachment of C3H10T1/2 cells after two hours to wells of 96-well, hydrogel-polystyrene plates coated with silyl-heparin complexes and the listed adhesive molecule was detected by staining with crystal violet. All proteins were used at a concentration of 100 μg/ml in buffered saline. Serum was used without dilution. Statistical significance was assessed relative to the values from buffered saline using Student's t-test, with * indicating p<0.05, ** indicating p<0.01 and *** indicating p<0.001.

Test [6] addresses T1, bFGF (Homo sapiens, UniProt P09038).
T1 construct: purchased Sigma Chemical Co
Put plainly: Effect of adhesive molecules complexed to silyl-heparin on subsequent bFGF binding. Particulars: adhesive molecule complexed to silyl-heparin at 100 μg/mL before bFGF. The procedure:
Wells of 96 well polystyrene microtiter plates, with a well surface area of 0.32 cm^2, were coated with 30 μl of silyl heparin for 15 minutes at 37° C. After rinsing and air-drying, bFGF (Sigma Chemical Co.) in PBS/BSA was added in 150 μL aliquots in doubling dilutions. The plate was incubated at 37° C. for 1 hour and rinsed 5 times in PBS. An aliquot 150 μl of PBS/BSA containing 1:500 rabbit anti-FGF antibodies were added, incubated for 1 hour and rinsed. In some cases an irrelevant rabbit antibody was used at a similar concentration (rabbit anti-TGF-receptor II, Santa Cruz Biotechnology). An aliquot of PBS/BSA containing 1:500 HRPO-conjugated donkey anti-rabbit IgG added, and after incubation and rinsing ABTS-chromogen added. All antibody solutions were filtered through 0.2 micron filters prior to use. The absorbance was monitored at 405 nm. […] When anti-TGF-II (irrelevant antibody directed against the transforming growth factor receptor) was used instead of anti-FGF and at the same anti-dilutions, no bFGF was detected. When TGF-β, at a concentration of 40 ng was used as the growth factor molecule, no activity was detected with anti-bFGF antibodies.
Murine type IV collagen, human fibrinogen and bovine fibronectin isolated from plasma were bound to silyl-heparin complexes bound to wells of polystyrene microtiter plates, at a concentration of 100 μg/mL in PBS/BSA. […]

The conditions of test [7]: affinity binding of fibronectin to heparin; cited from earlier work.
Test [8] deals with Bovine aorta endothelial cells. Put plainly: Capillary tube formation on coated low attachment wells. As to conditions: 5×10^3 cells per well; DMEM containing 10% FBS; 4 days; phase contrast microscopy. The format is cell-based. The method, then: Low attachment 96 well plates were coated with saline, silyl-heparin complex, silyl-heparin-fibrinogen complex or silyl-heparin-bFGF complex. Bovine aorta endothelial cells (5×10^3 cells) were seeded into each well in DMEM containing 10% FBS. The cells were allowed to grow for 4 days and the cultures examined by phase contrast microscopy.

This is an account of results in patent publication US6921811B2, “Bioactive coating composition and methods” (BioSurface Engineering Technologies, Inc., priority 1998, dated 2005).

Marks after values point to notes of the source that are not given here.

T1 sequence (P09038 143-288, species assumed): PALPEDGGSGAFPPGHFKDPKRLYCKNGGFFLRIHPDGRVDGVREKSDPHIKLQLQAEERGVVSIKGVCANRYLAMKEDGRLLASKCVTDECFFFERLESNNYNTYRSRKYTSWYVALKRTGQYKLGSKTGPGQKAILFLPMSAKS

As to “fibronectin: bovine plasma fibronectin, adhesive molecule”, the “CELL ATTACHMENT” value in test [1] is “isolated C3H10T1/2 cells and isolated GS-9L cells were found attached”; in test [2] (C3H10T1/2, coated low-attachment polystyrene wells, 10^4 cells/well, serum-containing medium), “isolated C3H10T1/2 cells and isolated GS-9L cells were found attached”. Besides, the “C3H10T1/2 CELL ATTACHMENT” value was “improve the attachment of cells” in test [3] (surface: Polyactide:polyglycolide), “did not significantly support cell attachment” in test [3] (surface: Polystyrene) and “improve the attachment of cells” in test [3] (surface: Polyurethane). Besides, in test [4], the “EC50 to support attachment of C3H10T1/2 cells” value is “approximately 0.5 μg/well”. The “attachment of C3H10T1/2 cells by crystal violet staining, Average ± S.E.” value (shortened to “attachment of C3H10T1/2 cells … Average ± S.E.”) in test [5] is on record as 1.00 ± 0.10**. For the same substance, the “effect on binding of bFGF to the silyl-heparin-adhesive molecule complex” value in test [6] is given as “significantly decreased the binding of bFGF”. In test [7], the affinity constant result is given as “approximately 10^8 M/L”.
In the case of “transferrin: protein used at 100 μg/ml on silyl-heparin coated wells”, the “attachment of C3H10T1/2 cells … Average ± S.E.” value in test [5] came to 0.15 ± 0.03.
For the substance “bFGF: basic fibroblast growth factor (Sigma Chemical Co.)”, the capillary tube formation entry in test [8] is “Tubes did not form”.
With heparin [reference compound], the “effect of heparin added to the medium on attachment or growth of cells” value in test [2] (up to 10 U of heparin, C3H10T1/2 plated onto silyl-heparin-fibronectin coated plates) is “did not inhibit the attachment or growth”. For the same substance, the “effect of coating or treatment on C3H10T1/2 cell attachment” value in test [3] (regardless of the substrate) is on record as “did not inhibit attachment”.
Consider gelatin, for which the “attachment of C3H10T1/2 cells … Average ± S.E.” value in test [5] is recorded as 0.15 ± 0.05.
In the case of fibrinogen, the “attachment of C3H10T1/2 cells … Average ± S.E.” value in test [5] was 1.63 ± 0.17**. Moreover, the “effect on binding of bFGF to the silyl-heparin-adhesive molecule complex” value in test [6] is given as “less significant decrease in binding”. Also, in test [8], the capillary tube formation entry is on record as “Tubes did not form”.
With poly-l-ornithine [reference compound], the “attachment of C3H10T1/2 cells … Average ± S.E.” value in test [5] is given as 0.92 ± 0.28*.
Turning to poly-l-lysine [reference compound], the “attachment of C3H10T1/2 cells … Average ± S.E.” value in test [5] is 1.18 ± 0.06***.
